Source: article PMC5007854, “β-Nitrostyrenes as Potential Anti-leishmanial Agents” (Frontiers in Microbiology, 2016)
Converted amounts (≈) assume the structure as drawn. Read-outs that look alike come from different tables or passages of the source.

How the values were obtained:
[1] = system: Candida glabrata ATCC 90030; experiment: Broth microdilution antifungal susceptibility (MIC/MFC); type: cell-based; conditions: for MIC / MFC: Nakaseomyces glabratus; for MIC: ATCC90030, 48 h
How it was run: (§1)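 CLSI broth microdilution: Ca/Mg-supplemented Mueller-Hinton for bacteria (~5 × 10^5 CFU/mL, 24 h), MOPS-buffered RPMI 1640 pH 7.0 for fungi (Candida ~2.5 × 10^4, Aspergillus 0.4-5 × 10^4 CFU/mL, 48 h), 35°C, 1% DMSO, 64 to 0.12 μg/mL. MIC read visually; MBC/MFC by plating clear wells.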

[2] = system: Aspergillus fumigatus ATCC 16424; experiment: as above; type: cell-based; conditions: for MIC / MFC: Aspergillus fumigatus; for MIC: ATCC16424, 48 h
How it was run: as §1

[3] = system: Aspergillus niger ATCC 16404; experiment: as above; type: cell-based; conditions: for MIC / MFC: Aspergillus niger; for MIC: ATCC16404, 48 h
How it was run: as §1

[4] = system: Candida albicans ATCC 90028; experiment: as above; type: cell-based; conditions: for MIC / MFC: Candida albicans; for MIC: ATCC90028, 48 h
How it was run: as §1

[5] = system: Escherichia coli ATCC 25922; experiment: Broth microdilution antibacterial susceptibility (MIC/MBC); type: cell-based; conditions: for MIC / MBC: Escherichia coli; for MIC: ATCC25922, 24 h
How it was run: as §1

[6] = system: Pseudomonas aeruginosa ATCC 27853; experiment: as above; type: cell-based; conditions: for MIC / MBC: Pseudomonas aeruginosa; for MIC: ATCC27853, 24 h
How it was run: as §1

[7] = system: Staphylococcus aureus ATCC 29213; experiment: as above; type: cell-based; conditions: Staphylococcus aureus; for MIC: ATCC29213, 24 h
How it was run: as §1

[8] = system: Staphylococcus epidermidis ATCC 14990; experiment: as above; type: cell-based; conditions: for MIC / MBC: Staphylococcus epidermidis; for MIC: ATCC14990, 24 h
How it was run: as §1

[9] = system: nitric oxide production in L. donovani infected peritoneal macrophages; experiment: Nitrite (NO) production by Griess reaction in infected macrophages; type: cell-based, BALB/c mice; conditions: 48 h; for NO levels, in words: 0–25 μM; for NO production (nitrite): compound at 25 μM
Description: The supernatant from control L. donovani infected and treated macrophages were analyzed for nitrite content by the Griess reaction. In brief, equal volume of Griess reagent [1%sulphanilamide and 0.1% N-(1-naphthyl) ethylenediaminedihydrochloride in 5% phosphoric acid] was added to the culture supernatant and the plates were incubated for 10 min at room temperature using sodium nitrite as a standard. The absorbance at 550 nm was measured and the concentration of nitrite was calculated by a linear regression analyzing the standard curve generated with sodium nitrite (Varela et al., [2012]).

[10] = system: gram-positive bacteria (S. aureus and S. epidermidis); experiment: Broth microdilution, pooled statement for gram-positive bacteria; type: cell-based; conditions: Staphylococcus aureus; range over both strains
Excerpt: (§2) One reference each of the following species was used for their in vitro susceptibility to β-nitrostyrene in this study: Staphylococcus aureus ATCC 29213, Staphylococcus epidermidis ATCC 14990, Escherichia coli ATCC 25922, Pseudomonas aeruginosa ATCC 27853, Candida albicans ATCC 90028, Candida glabrata ATCC 90030, Aspergillus fumigatus ATCC 16424 and Aspergillus niger ATCC 16404. These strains were procured from the American Type Culture Collection (ATCC, Manassas, VA, USA).
(§3) The antibacterial and antifungal activities of the β-nitrostyrenes were performed by broth microdilution methods as per the guidelines of Clinical and Laboratory Standard Institute (Wayne, [1998], [2008a],[b],[c]) by using Mueller-Hinton broth (MHB; Becton-Dickinson, Cockeysville, MD, USA) supplemented with calcium (25 mg/L) and magnesium (12.5 mg/L) for bacterial strains while as RPMI 1640 medium with L-glutamine and without sodium bicarbonate, buffered to pH 7.0 with 0.165 M 3-(N-morpholino) propanesulfonic acid (MOPS; both from Sigma) was used for fungal strains. […] The plates were read visually and the minimum inhibitory concentration (MIC) was defined as the lowest concentration of test sample that prevented visible growth with respect to the growth control.

Candida species = experiment: Broth microdilution, pooled statement for Candida species; type: cell-based; conditions: range over C. albicans and C. glabrata
Excerpt: as §2, §3

Aspergillus species = experiment: Broth microdilution, pooled statement for Aspergillus species; type: cell-based; conditions: range over A. fumigatus and A. niger
Excerpt: as §2, §3

[11] = ATCC90030, ≥99.9% reduction of original inoculum, read-out: MFC, Cg ATCC 90030
[12] = broth microdilution, 35°C, 48 h, read-out: MIC, Af ATCC 16424
[13] = ATCC16424, ≥99.9% reduction of original inoculum, read-out: MFC, Af ATCC 16424
[14] = broth microdilution, 35°C, 48 h, read-out: MIC, An ATCC 16404
[15] = ATCC16404, ≥99.9% reduction of original inoculum, read-out: MFC, An ATCC 16404
[16] = ATCC90028, ≥99.9% reduction of original inoculum, read-out: MFC, Ca ATCC 90028
[17] = ATCC25922, ≥99.9% reduction of original inoculum, read-out: MBC, Ec ATCC 25922
[18] = ATCC27853, ≥99.9% reduction of original inoculum, read-out: MBC, Pa ATCC 27853
[19] = ATCC29213, ≥99.9% reduction of original inoculum, read-out: MBC, Sa ATCC 29213
[20] = ATCC14990, ≥99.9% reduction of original inoculum, read-out: MBC, Se ATCC 14990
[21] = read-out: MIC, Cg ATCC 90030, broth microdilution, 35°C, 48 h
[22] = ATCC90030, read-out: MFC, Cg ATCC 90030
[23] = broth microdilution, 35°C, 48 h
[24] = read-out: MIC, Af ATCC 16424, broth microdilution, 35°C, 48 h
[25] = ATCC16424, read-out: MFC, Af ATCC 16424
[26] = read-out: MIC, An ATCC 16404, broth microdilution, 35°C, 48 h
[27] = ATCC16404, read-out: MFC, An ATCC 16404
[28] = read-out: MIC, Ca ATCC 90028, broth microdilution, 35°C, 48 h
[29] = ATCC90028, read-out: MFC, Ca ATCC 90028
[30] = read-out: MIC, Ec ATCC 25922, broth microdilution, 35°C, 24 h
[31] = ATCC25922, read-out: MBC, Ec ATCC 25922
[32] = broth microdilution, 35°C, 24 h
[33] = read-out: MIC, Pa ATCC 27853, broth microdilution, 35°C, 24 h
[34] = ATCC27853, read-out: MBC, Pa ATCC 27853
[35] = ATCC29213, read-out: MBC, Sa ATCC 29213
[36] = read-out: MIC, Se ATCC 14990, broth microdilution, 35°C, 24 h
[37] = ATCC14990, read-out: MBC, Se ATCC 14990

Compound	MFC [1, 11] [µg/mL]	MIC [2, 12] [µg/mL]	MFC [2, 13] [µg/mL]	MIC [3, 14] [µg/mL]	MFC [3, 15] [µg/mL]	MFC [4, 16] [µg/mL]	MBC [5, 17] [µg/mL]	MBC [6, 18] [µg/mL]	MBC [7, 19] [µg/mL]	MBC [8, 20] [µg/mL]	NO levels, in words [9]	NO production (nitrite) [9] [µM]	MIC [1, 21] [µg/mL]	MFC [1, 22] [µg/mL]	MIC [2, 24] [µg/mL]	MFC [2, 25] [µg/mL]	MIC, Af ATCC 16424 [2, 23] [µg/mL]	MIC [3, 26] [µg/mL]	MFC [3, 27] [µg/mL]	MIC, An ATCC 16404 [3, 23] [µg/mL]	other results
COc1ccc(/C=C(\C)[N+](=O)[O-])cc1 [Compound 14, 1-methoxy-4-((E)-2-nitroprop-1-enyl) benzene]	8 (≈ 41.4 µM)	8 (≈ 41.4 µM)	8 (≈ 41.4 µM)	4 (≈ 20.7 µM)	4 (≈ 20.7 µM)	32 (≈ 166 µM)	> 64	> 64	8 (≈ 41.4 µM)	4 (≈ 20.7 µM)	mildly induced	5.89									MIC ([1]; broth microdilution, 35°C, 48 h, read-out: MIC, Cg ATCC 90030): 8 µg/mL (≈ 41.4 µM); MIC ([4]; broth microdilution, 35°C, 48 h, read-out: MIC, Ca ATCC 90028): 32 µg/mL (≈ 166 µM); MIC ([5]; broth microdilution, 35°C, 24 h, read-out: MIC, Ec ATCC 25922): 64 µg/mL (≈ 331 µM); MIC ([6]; broth microdilution, 35°C, 24 h, read-out: MIC, Pa ATCC 27853): > 64 µg/mL; MIC ([7]; broth microdilution, 35°C, 24 h, read-out: MIC, Sa ATCC 29213): 8 µg/mL (≈ 41.4 µM); MIC ([8]; broth microdilution, 35°C, 24 h, read-out: MIC, Se ATCC 14990): 4 µg/mL (≈ 20.7 µM)
CC/C(=C\c1ccc([N+](=O)[O-])cc1)[N+](=O)[O-] [Compound 9, 1-nitro-4-((E)-2-nitrobut-1-enyl) benzene]											moderately increased	8.05	0.25 to 16 (≈ 1.13 to 72 µM)	0.25 (≈ 1.13 µM)	4 to 8 (≈ 18 to 36 µM)	8 (≈ 36 µM)	8 (≈ 36 µM)	2 to 4 (≈ 9 to 18 µM)	4 (≈ 18 µM)	4 (≈ 18 µM)	MIC, Cg ATCC 90030 [1, 23]: 0.25 µg/mL (≈ 1.13 µM); MIC [4, 28]: 4 to 32 µg/mL (≈ 18 to 144 µM); MFC [4, 29]: 8 µg/mL (≈ 36 µM); MIC, Ca ATCC 90028 [4, 23]: 8 µg/mL (≈ 36 µM); MIC [5, 30]: 16 to 32 µg/mL (≈ 72 to 144 µM); MBC [5, 31]: 32 µg/mL (≈ 144 µM); MIC, Ec ATCC 25922 [5, 32]: 16 µg/mL (≈ 72 µM); MIC [6, 33]: 16 to 32 µg/mL (≈ 72 to 144 µM); MBC [6, 34]: 32 µg/mL (≈ 144 µM); MIC, Pa ATCC 27853 [6, 32]: 16 µg/mL (≈ 72 µM); MBC [7, 35]: 8 µg/mL (≈ 36 µM); MIC [8, 36]: 2 to 16 µg/mL (≈ 9 to 72 µM); MBC [8, 37]: 4 µg/mL (≈ 18 µM); MIC, Se ATCC 14990 [8, 32]: 4 µg/mL (≈ 18 µM); melting point: 104 to 106 °C
CC/C(=C\c1ccc(O)cc1)[N+](=O)[O-] [Compound 18, 4-((E)-2-nitrobut-1-enyl) phenol]	8 (≈ 41.4 µM)	4 to 8 (≈ 20.7 to 41.4 µM)	16 (≈ 82.8 µM)	2 to 4 (≈ 10.4 to 20.7 µM)	8 (≈ 41.4 µM)	16 (≈ 82.8 µM)	> 64	> 64	16 (≈ 82.8 µM)	8 (≈ 41.4 µM)		3.22					8 (≈ 41.4 µM)			4 (≈ 20.7 µM)	
CC/C(=C\c1cccc([N+](=O)[O-])c1)[N+](=O)[O-] [Compound 12, 1-nitro-3-((E)-2-nitrobut-1-enyl) benzene]											moderately increased	7.89	0.25 (≈ 1.13 µM)	0.25 (≈ 1.13 µM)	1 (≈ 4.5 µM)	1 (≈ 4.5 µM)		0.5 (≈ 2.25 µM)	0.5 (≈ 2.25 µM)		MIC [4, 28]: 2 µg/mL (≈ 9 µM); MFC [4, 29]: 2 µg/mL (≈ 9 µM); MIC [10]: 0.25 to 0.5 µg/mL (≈ 1.13 to 2.25 µM); MIC [5, 30]: 16 µg/mL (≈ 72 µM); MBC [5, 31]: 16 µg/mL (≈ 72 µM); MIC [6, 33]: 16 µg/mL (≈ 72 µM); MBC [6, 34]: 16 µg/mL (≈ 72 µM); MIC ([7]; read-out: MIC, Sa ATCC 29213, broth microdilution, 35°C, 24 h): 0.5 µg/mL (≈ 2.25 µM); MBC [7, 35]: 0.5 µg/mL (≈ 2.25 µM); MIC [8, 36]: 0.25 µg/mL (≈ 1.13 µM); MBC [8, 37]: 0.25 µg/mL (≈ 1.13 µM); melting point: 84 to 86 °C; MIC (Candida species): 0.25 to 2 µg/mL (≈ 1.13 to 9 µM); MIC (Aspergillus species): 0.5 to 1 µg/mL (≈ 2.25 to 4.5 µM)
